Measurements from patent US8110228B2, “Composition for treatment of menopause” (Bionovo, Inc., priority 2005, dated 2012).
Marks after values point to notes of the source that are not given here. Each block holds one compound with its values, some of them ahead of it.

Columns and labels:
[1] = system: uterine horn; test: uterine horn mass, control vs DES vs MF101; format: in vivo; details: FIG. 3H
Text: (§1) In a similar experiment, the effect of MF101 on breast cancer cells was compared to that of diethylstilbestrol (DES). […] FIGS. 3G and 3H show the effect of control, DES and MF101 on a breast cancer graft mass (FIG. 3G) and a uterine horn mass (FIG. 3H).

[2] = system: breast cancer graft; test: breast cancer graft (xenograft) growth, control vs DES vs MF101; format: in vivo
Text: as §1

[3] = system: U2OS-ERβ cells; test: Affymetrix U95Av2 gene expression microarray in U2OS-ERβ cells; format: cell-based, human
Protocol: (§2) To identify genes regulated by ERα and/or ERβ, the U2OS-ERα and U2OS-ERβ cell lines were treated with doxycycline for 18 h in the absence or presence of 10 nM E2. Total RNA was used to prepare cRNA for hybridization with the human U95Av2 Affymetrix microarrays, which contain 12,600 known genes. Six sets of comparative expression data of untreated vs. each treated group were used to determine the genes regulated in ERα or ERβ cells.
(§3) Microarray data obtained from human Affymetrix U95Av2 gene chips from untreated vs. ligand-treated samples were analyzed using the Affymetrix Microarray Suite Version 5.0. Candidate genes displaying a statistically significant (p<0.05) increase or decrease signal changes relative to controls in at least three experiments were further selected by a ±0.8 signal log ratio mean cut-off. […] Fold-changes in the U2OS-ERα and U2OS-ERβ samples (in parentheses) were calculated relative to the untreated samples.

[4] = system: U2OS-ERα and U2OS-ERβ cell lines; test: Affymetrix U95Av2 microarray, genes regulated across U2OS-ERα and U2OS-ERβ cell lines; format: cell-based, human; details: for number of genes Activated, α + β / number of genes Repressed, α + β: in both cell lines; for number of genes Activated, α + β / number of genes Repressed, α + β / total genes regulated in U2OSα and U2OSβ cell lines: 18 h; for total genes regulated in U2OSα and U2OSβ cell lines: p<0.05, 10 nM E2, 1 μM raloxifene or 1 μM tamoxifen
Protocol: as §2, §3

[5] = system: U2OS-ERα cells; test: Affymetrix U95Av2 gene expression microarray in U2OS-ERα cells; format: cell-based, human; details: for number of genes Activated, α / number of genes Repressed, α: 10 nM E2, 1 μM raloxifene or 1 μM tamoxifen
Protocol: as §2, §3

[6] = system: U2OS-ERβ cells; details: relative to untreated, 18 h
[7] = system: U2OS-ERα cells; details: relative to untreated, 18 h
[8] = target: T1, human ERβ (Homo sapiens, UniProt Q92731); test: ERE-tk-Luc reporter activation in U2OS osteosarcoma cells transfected with ERβ; format: cell-based; details: FIG. 1B
T1 construct: expressed in transfected cells; host or cells: U2OS osteosarcoma cells, transient transfection

[9] = system: U2OS-ERα and U2OS-ERβ cell lines; test: Affymetrix U95Av2 microarray, genes regulated across U2OS-ERα and U2OS-ERβ cell lines; format: cell-based, human; details: for number of common genes with opposite expression patterns in ERα cells compared to ERβ cells (*): α + β, 1 μM SERM, 18 h
[10] = only in U2OS-ERα cells, percent of all regulated genes

T1 sequence (Q92731 whole entry): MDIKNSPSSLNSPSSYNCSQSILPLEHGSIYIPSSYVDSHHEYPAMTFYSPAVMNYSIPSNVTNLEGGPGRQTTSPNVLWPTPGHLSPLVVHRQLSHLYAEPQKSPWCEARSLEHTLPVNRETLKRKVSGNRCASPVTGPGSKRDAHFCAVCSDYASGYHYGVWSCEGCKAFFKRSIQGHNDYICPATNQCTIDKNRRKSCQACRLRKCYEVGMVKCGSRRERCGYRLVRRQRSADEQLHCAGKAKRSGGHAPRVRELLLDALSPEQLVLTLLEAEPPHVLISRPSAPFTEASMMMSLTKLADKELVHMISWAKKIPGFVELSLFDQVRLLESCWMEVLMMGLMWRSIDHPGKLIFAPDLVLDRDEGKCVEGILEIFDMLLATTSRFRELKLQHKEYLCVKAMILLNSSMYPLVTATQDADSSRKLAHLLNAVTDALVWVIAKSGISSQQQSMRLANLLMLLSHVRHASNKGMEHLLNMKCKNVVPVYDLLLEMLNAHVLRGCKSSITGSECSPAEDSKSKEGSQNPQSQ

Structure (SMILES): CC/C(=C(/CC)c1ccc(O)cc1)c1ccc(O)cc1 [DES, diethylstilbestrol]
growth of uterine horn mass [1]: substantial increase in uterine horn growth
growth of xenograft (breast cancer graft mass) ([2]; FIG. 3G): substantial increase in xenograft mass
proliferation of breast cancer cells ([2]; FIGS. 3D-3F): proliferation-stimulating effect

Structure (SMILES): C[C@]12CC[C@@H]3c4ccc(O)cc4CC[C@H]3[C@@H]1CC[C@@H]2O [estradiol]
genes regulated only in the U2OS-ERβ cells ([3]; 10 nM E2): 125 genes
number of genes Activated, β ([3]; only in U2OS-ERβ cells, 18 h): 87
number of genes Repressed, β ([3]; only in U2OS-ERβ cells, 18 h): 38
percentage of genes regulated by both ERα and ERβ ([4]; 10 nM E2, 38 of the 228): 17%
genes regulated by both ERα and ERβ ([4]; 10 nM E2, of the 228): 38 genes
number of genes Activated, α + β [4]: 34
number of genes Repressed, α + β [4]: 4
total genes regulated in U2OSα and U2OSβ cell lines [4]: Estradiol: 228 genes regulated in U2OSα and U2OSβ cell lines
total genes regulated in U2OSα and U2OSβ cell lines ([4]; listed as E2): 228 genes
genes regulated only in the U2OS-ERα cells ([5]; 10 nM E2): 65 genes
number of genes Activated, α ([5]; only in U2OS-ERα cells, 18 h): 33
number of genes Repressed, α ([5]; only in U2OS-ERα cells, 18 h): 32

blockade of the activation of ERE-tk-Luc by MF101 [8]: blocked
Structure (SMILES): O=C(c1ccc(OCCN2CCCCC2)cc1)c1c(-c2ccc(O)cc2)sc2cc(O)ccc12 [raloxifene]
Mean signal log ratio ± S.E., NKG2C (β) ([3]; U2OS-ERβ, 18 h): −5.20 ± 0.08
relative percentage of genes Activated, β ([3]; only in U2OS-ERβ cells): (27.4%)
relative percentage of genes Repressed, β ([3]; only in U2OS-ERβ cells): (53.2%)
number of genes Activated, β ([3]; only in U2OS-ERβ cells, 18 h): 52
number of genes Repressed, β ([3]; only in U2OS-ERβ cells, 18 h): 101
Fold-change by real-time PCR, NKG2C (β) [6]: 0.36 fold
Fold-change by real-time PCR, NKG2C (α) [7]: 7.54 fold
total genes regulated in U2OSα and U2OSβ cell lines [4]: Raloxifene: 190 genes regulated in U2OSα and U2OSβ cell lines
relative percentage of common genes with opposite expression patterns (*) ([4]; α + β): (8.9%)
Mean signal log ratio ± S.E., NKG2C (α) ([5]; U2OS-ERα, 18 h): 2.40 ± 0.82
number of genes Activated, α ([5]; only in U2OS-ERα cells, 18 h): 10
number of genes Repressed, α ([5]; only in U2OS-ERα cells, 18 h): 10
relative percentage of genes Activated, α [5, 10]: (5.3%)
relative percentage of genes Repressed, α [5, 10]: (5.3%)
number of common genes with opposite expression patterns in ERα cells compared to ERβ cells (*) [9]: 17*

Structure (SMILES): CC/C(=C(\c1ccccc1)c1ccc(OCCN(C)C)cc1)c1ccccc1 [tamoxifen]
number of genes Activated, β ([3]; only in U2OS-ERβ cells, 18 h): 26
number of genes Repressed, β ([3]; only in U2OS-ERβ cells, 18 h): 129
number of genes Activated, α + β [4]: 1
number of genes Repressed, α + β [4]: 9
total genes regulated in U2OSα and U2OSβ cell lines [4]: Tamoxifen: 236 genes regulated in U2OSα and U2OSβ cell lines
number of genes Activated, α ([5]; only in U2OS-ERα cells, 18 h): 21
number of genes Repressed, α ([5]; only in U2OS-ERα cells, 18 h): 38
percentage of genes regulated by tamoxifen that were also regulated by raloxifene [9]: 27%
number of common genes with opposite expression patterns in ERα cells compared to ERβ cells (*) [9]: 12*
